Results reported in paper PMC11470957, “Principles of paralog-specific targeted protein degradation engaging the C-degron E3 KLHDC2” (Nature Communications, 2024).
“And” between values parts separate entries of the source, which are not always exact repeats. Equal entries are not always repeated. Where two headings read alike, the source gives them in different places.

Target: BRD3 (Homo sapiens, UniProt Q15059)
Assay: Western blot of BRD3 levels after cellular dosing
Conditions: for DC50: read-out: BRD3 DC50

Sequence of BRD3 (Q15059 whole entry): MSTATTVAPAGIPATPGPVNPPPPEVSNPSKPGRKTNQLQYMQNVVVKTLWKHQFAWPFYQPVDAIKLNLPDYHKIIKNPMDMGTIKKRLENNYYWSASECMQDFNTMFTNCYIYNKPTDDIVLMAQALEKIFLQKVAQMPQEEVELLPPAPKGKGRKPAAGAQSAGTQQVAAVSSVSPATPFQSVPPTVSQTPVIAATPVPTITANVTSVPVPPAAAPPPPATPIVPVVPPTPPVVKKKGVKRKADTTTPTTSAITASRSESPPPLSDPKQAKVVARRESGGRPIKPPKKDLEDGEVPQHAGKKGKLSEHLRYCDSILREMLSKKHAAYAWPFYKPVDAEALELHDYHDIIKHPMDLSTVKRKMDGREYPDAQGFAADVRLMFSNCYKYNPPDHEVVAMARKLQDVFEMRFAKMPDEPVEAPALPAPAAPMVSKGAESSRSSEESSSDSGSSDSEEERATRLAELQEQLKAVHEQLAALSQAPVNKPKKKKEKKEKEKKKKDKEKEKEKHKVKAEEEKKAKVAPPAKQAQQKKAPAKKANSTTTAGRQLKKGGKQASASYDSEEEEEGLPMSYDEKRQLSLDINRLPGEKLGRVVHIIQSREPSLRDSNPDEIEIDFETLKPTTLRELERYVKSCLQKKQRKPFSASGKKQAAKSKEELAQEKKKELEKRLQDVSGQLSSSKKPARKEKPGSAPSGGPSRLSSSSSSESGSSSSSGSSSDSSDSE

COC(=O)CNC(=O)Cc1csc(-c2ccc3cccc(OCCN4CCN(C(=O)C[C@@H]5N=C(c6ccc(Cl)cc6)c6c(sc(C)c6C)-n6c(C)nnc65)CC4)c3c2)n1 [SJ46420]
remaining activity at 5 µM (SK-BR-3, 4 h, read-out: BRD3 level relative to DMSO (100%), SKBR3, 5µM, 4hr, Fig S6g): 13 ± 2.9%
remaining activity at 5 µM (SK-BR-3, 4 h, read-out: BRD3 level relative to DMSO (100%), SKBR3, 5µM, 4hr, Fig S6j): 31 ± 5.6%
remaining activity at 1 µM (SK-BR-3, 4 h, read-out: BRD3 level, Western blot quantification (DMSO = 100), Fig S6g, SKBR3 Time course, 1 uM, 4hr): 41.9%
remaining activity at 5 µM (SK-BR-3, 4 h, read-out: BRD3 level, Western blot quantification (DMSO = 100), Fig S6g, SKBR3 Time course, 5 uM, 4hr): 15.1%
remaining activity at 1 µM (SK-BR-3, 8 h, read-out: BRD3 level relative to DMSO (100%), SKBR3, 1µM, 8hr, Fig S6g): 32 ± 3.5%
remaining activity at 5 µM (SK-BR-3, 8 h, read-out: BRD3 level relative to DMSO (100%), SKBR3, 5µM, 8hr, Fig S6g): 8.8 ± 2.6%
remaining activity at 1 µM (SK-BR-3, 8 h, read-out: BRD3 level, Western blot quantification (DMSO = 100), Fig S6g, SKBR3 Time course, 1 uM, 8hr): 35%
remaining activity at 5 µM (SK-BR-3, 8 h, read-out: BRD3 level, Western blot quantification (DMSO = 100), Fig S6g, SKBR3 Time course, 5 uM, 8hr): 10.6%
remaining activity at 5 µM (SK-BR-3, read-out: BRD3 level, Western blot quantification (DMSO = 100), Fig S6i, SKBR3, 5uM): 27.2%
potency relative to K2-B4-3e (more potent) (SKBR3 4 h, U2OS 8 h): ~ 3 fold and 2-3 fold
selectivity of BRD3 over BRD4 degradation (SKBR3, 8 hr): ~ 5 fold
selectivity of BRD3 over BRD4 degradation (SKBR3, 24 hr): ~ 1.5 fold
reduction of the levels of BRD3 (SKBR3, within two hours): ~ 70%
BRD3 Dmax (U2OS KO/Rescue, 24 h dose): ~ 100%
selectivity for BRD3 over BRD2 and BRD4 (DC50) (U2OS KO/rescue): ~ 2.5 fold
time of maximal degradation (U2OS cells): 8 h
remaining activity at 5 µM (U2OS, 2 h, read-out: BRD3 level relative to DMSO (100%), U2OS, 5µM, 2hr, Fig S6h): 93 ± 9.8%
remaining activity at 5 µM (U2OS, 2 h, read-out: BRD3 level, Western blot quantification (DMSO = 100), Fig S6h, U2OS Time course, 5uM, 2hr): 91.4%
remaining activity at 5 µM (U2OS, 4 h, read-out: BRD3 level relative to DMSO (100%), U2OS, 5µM, 4hr, Fig S6h): 68 ± 9.8%
remaining activity at 5 µM (U2OS, 4 h, read-out: BRD3 level, Western blot quantification (DMSO = 100), Fig S6h, U2OS Time course, 5uM, 4hr): 71.3%
remaining activity at 5 µM (U2OS, 8 h, read-out: BRD3 level relative to DMSO (100%), U2OS, 5µM, 8hr, Fig S6i): 41 ± 5.4%
remaining activity at 5 µM (U2OS, 8 h, read-out: BRD3 level relative to DMSO (100%), U2OS, 5µM, 8hr, Fig S6h): 28 ± 9.8%
remaining activity at 5 µM (U2OS, 8 h, read-out: BRD3 level, Western blot quantification (DMSO = 100), Fig S6h, U2OS Time course, 5uM, 8hr): 31.8%
remaining activity at 5 µM (U2OS, 24 h, read-out: BRD3 level relative to DMSO (100%), U2OS DC2KO (KLHDC2 knockout), 5µM, 24 h, Fig 6b): 100 ± 6.8%
remaining activity at 0.16 µM (U2OS, 24 h, read-out: BRD3 level relative to DMSO (100%), U2OS KO/Rescue, 0.16µM, 24 h, Fig S6d): 85 ± 13%
remaining activity at 0.31 µM (U2OS, 24 h, read-out: BRD3 level relative to DMSO (100%), U2OS KO/Rescue, 0.31µM, 24 h, Fig S6d): 65 ± 14%
remaining activity at 0.63 µM (U2OS, 24 h, read-out: BRD3 level relative to DMSO (100%), U2OS KO/Rescue, 0.63µM, 24 h, Fig S6d): 39 ± 8.5%
remaining activity at 1 µM (U2OS, 24 h, read-out: BRD3 level relative to DMSO (100%), U2OS KO/Rescue, 1µM + co-dosing 1µM MLN4924, 24 h, Fig 6d): 120 ± 1.5%
remaining activity at 1 µM (U2OS, 24 h, read-out: BRD3 level relative to DMSO (100%), U2OS KO/Rescue, 1µM, 24 h, Fig 6c): 45 ± 3.6%
remaining activity at 1 µM (U2OS, 24 h, read-out: BRD3 level relative to DMSO (100%), U2OS KO/Rescue, 1µM, 24 h, Fig 6d): 25 ± 8.2%
remaining activity at 1.3 µM (U2OS, 24 h, read-out: BRD3 level relative to DMSO (100%), U2OS KO/Rescue, 1.3µM, 24 h, Fig S6d): 12 ± 1.8%
remaining activity at 2.5 µM (U2OS, 24 h, read-out: BRD3 level relative to DMSO (100%), U2OS KO/Rescue, 2.5µM, 24 h, Fig S6d): 0.77 ± 0.16%
remaining activity at 5 µM (U2OS, 24 h, read-out: BRD3 level relative to DMSO (100%), U2OS KO/Rescue, 5µM, 24 h, Fig S6d): 0.34 ± 0.11%
remaining activity at 5 µM (U2OS, 24 h, read-out: BRD3 level relative to DMSO (100%), U2OS, 5µM, 24 h, Fig 6b): 30.9 ± 4.1%
remaining activity at 5 µM (U2OS, 24 h, read-out: BRD3 level relative to DMSO (100%), U2OS, 5µM, 24hr, Fig S6h): 41 ± 9.8%
remaining activity at 5 µM (U2OS, 24 h, read-out: BRD3 level, Western blot quantification (DMSO = 100), Fig S6h, U2OS Time course, 5uM, 24hr): 43.5%
selectivity of BRD3 over BRD4 degradation (U2OS, 24 hr): ~ 1.4 fold
remaining activity at 1.59176 µM (U2OS, read-out: BRD3 (DMSO = 100), U2OS KO/Rescue cells, Log SJ46420 (uM) 1.59176, Rep1, Rep2): 95%
remaining activity at 2.49485 µM (U2OS, read-out: BRD3 (DMSO = 100), U2OS KO/Rescue cells, Log SJ46420 (uM) 2.49485, Rep1, Rep2): 47.6%
remaining activity at 2.79588 µM (U2OS, read-out: BRD3 (DMSO = 100), U2OS KO/Rescue cells, Log SJ46420 (uM) 2.79588, Rep1, Rep2): 11.4%
remaining activity at 3.09691 µM (U2OS, read-out: BRD3 (DMSO = 100), U2OS KO/Rescue cells, Log SJ46420 (uM) 3.09691, Rep1, Rep2): 0.66%
remaining activity at 3.39794 µM (U2OS, read-out: BRD3 (DMSO = 100), U2OS KO/Rescue cells, Log SJ46420 (uM) 3.39794, Rep1, Rep2): 0.34%
remaining activity at 3.69897 µM (U2OS, read-out: BRD3 (DMSO = 100), U2OS KO/Rescue cells, Log SJ46420 (uM) 3.69897, Rep1, Rep2): 0.161%
Dmax (U2OS, read-out: BRD3 Dmax, U2OS KO/Rescue, 24 h dose): 99.9%
remaining activity at 5 µM (U2OS, read-out: BRD3 level, Western blot quantification (DMSO = 100), Fig 6b, U2OS, 5 uM): 33.9%
remaining activity at 5 µM (U2OS, read-out: BRD3 level, Western blot quantification (DMSO = 100), Fig S6i, U2OS, 5uM): 52.9%
remaining activity at 0.156 µM (U2OS, read-out: BRD3 level, Western blot quantification (DMSO = 100), Fig S6d, U2OS KO/rescue Dose Response, 0.156 uM): 108%
remaining activity at 0.313 µM (U2OS, read-out: BRD3 level, Western blot quantification (DMSO = 100), Fig S6d, U2OS KO/rescue Dose Response, 0.313 uM): 70.7%
remaining activity at 0.625 µM (U2OS, read-out: BRD3 level, Western blot quantification (DMSO = 100), Fig S6d, U2OS KO/rescue Dose Response, 0.625 uM): 29.3%
remaining activity at 1.25 µM (U2OS, read-out: BRD3 level, Western blot quantification (DMSO = 100), Fig S6d, U2OS KO/rescue Dose Response, 1.25 uM): 11.3%
remaining activity at 2.5 µM (U2OS, read-out: BRD3 level, Western blot quantification (DMSO = 100), Fig S6d, U2OS KO/rescue Dose Response, 2.5 uM): 5.44%
stability in cells (from time-course of BRD3 levels between 8 h and 24 h): relatively unstable
DC50 (22Rv1, 24 h dose): 458 nM
DC50 (PC3, 24 h dose): 487 nM
